Tests used:
BRD4 ET domain = BRD4 ET domain (Homo sapiens, UniProt O60885); assay type: binding; conditions: 20 mM Tris pH 7.0, 100 mM NaCl, 3 mM DTT, 10% D2O
Calu-3 cells = conditions: 0.01 µM
[1] = tested on: native human MYST-family HAT complex purified via BRPF2 (HBO1); assay: In vitro acetyltransferase assay, 3H-acetyl incorporation; assay type: biochemical; conditions: 0.5 μg peptide, 3H Ac-CoA, 30 minutes at 30 °C, liquid scintillation
[2] = tested on: human HAT complex NuA4/TIP60; assay: In vitro acetyltransferase assay; assay type: biochemical
human HAT complex SAGA = assay: In vitro acetyltransferase assay; assay type: biochemical
[3] = tested on: native human MYST-family HAT complexes purified via MEAF6 (MYST); assay: In vitro acetyltransferase assay, 3H-acetyl incorporation; assay type: biochemical; conditions: 0.5 μg peptide, 3H Ac-CoA, 30 minutes at 30 °C, liquid scintillation

Molecule: SARS-CoV-2 E^53−72: longer non-acetylated peptide, aa 53–72 of SARS-CoV-2 E (KPSFYVYSRVKNLNSSRVPD)
- Chemical shift perturbations in BRD4 ET upon peptide addition (BRD4 ET domain): did not alter the pattern of CSPs

Molecule: SARS-CoV-2 E^57−69: peptide, aa 57–69 of SARS-CoV-2 E (YVYSRVKNLNSSR)
- Chemical shift perturbations in BRD4 ET upon peptide addition (BRD4 ET domain): small CSPs

Molecule: Cc1sc2c(c1C)C(c1ccc(Cl)cc1)=N[C@@H](CC(=O)Nc1ccc(O)cc1)c1nnc(C)n1-2 [OTX015]
- Calu-3 cell viability (Calu-3 cells): 98%

Molecule: SARS-CoV-2 E^48−72: peptide, aa 48–72 of SARS-CoV-2 E, acetyltransferase substrate (NVSLVKPSFYVYSRVKNLNSSRVPD; UniProt P0DTC4 48-72, looked up, fragment)
- Acetylation of the peptide by HBO1 (BRPF2) complex [1]: able to some extent acetylate
- Acetylation of the peptide by NuA4/TIP60 [2]: undetectable
- Acetylation of the peptide by SAGA (human HAT complex SAGA): undetectable
- Acetylation of the peptide by MYST (MEAF6) complexes [3]: able to some extent acetylate
